# Test results: PMC3280214, “Structure Based Discovery of Small Molecules to Regulate the Activity of Human Insulin Degrading Enzyme” (PLoS ONE, 2012)
# pEC50: −log10 of the molar value. Entries after “also recorded” stand apart in the source; their conditions may differ.
# What was measured:
# HeLa cells [1] = assay: MTT assay for cell viability; assay type: cell-based, human
# From the text: We characterized the activity of novel compounds in a cellular assay to establish whether there were any cytotoxic effects. We used an established MTT (3-(4,5-dimethylthiazolyl-2)-2, 5-diphenyltetrazolium bromide or thiazolyl blue) method using HELA cells to determine whether the small molecule affects cell viability. In this method, a purple formazan dye forms as a result of the cleavage of the yellow tetrazolium MTT within metabolically active cells. The resulting precipitate of the intracellular formazan can be dissolved in a detergent solution and quantified spectrophotometrically at 595 nm. We measured the cytotoxicity by incubating HELA cells in the presence of novel compounds at concentrations ranging from 1 to 100 µM for 24 h. Cell viability was measured using the MTT method after […] culture. The extent of cell death was expressed relative to a control containing DMSO. […] Therefore, as a next step we tested the effects of lead compounds on insulin catabolism using HeLa cells.
# The cytotoxicity assay was performed using human cervical cancer HeLa cells. Cells were cultured at 37°C under a humidified atmosphere of 5% CO2 in medium supplemented with 10% fetal bovine serum and dispersed in replicate 96-well plates with 2.5×10^4 cells/well. Compounds were then added. After 24 hours exposure to the chemical compounds, the cell viability was determined by 3-[4,5-dimethylthiazol-2-yl]-2,5-diphenpyltetrazolium bromide (MTT) assay. The optical density (OD) of the wells was determined using ELISA plate reader at a test wavelength of 600 nm and a reference wavelength of 630 nm. Each measurement was carried out in triplicate.
# HeLa cells [2] = assay: Cell-based degradation of FITC-insulin; parameters: species or system human
# Description: It was shown that HeLa cells express insulin receptor, and thus take FITC-labeled insulin inside and degrade it intracellularly, [21], [22]. First, FITC-insulin was added to the culture that contains HeLa cells and incubated for 2 hours in order to allow for sufficient uptake of FITC-insulin by HeLa cells. In order to ensure that FITC-labeled insulin is translocating into the cells through insulin uptake receptor, and that cytoplasmic IDE can degrade FITC- insulin, we conducted live cell imaging of HeLa cells, and recorded fluorescence. At various time points compounds, D3, D6, and D10, were added; and cells were washed with Hank's balanced salt solution (HBSS), the these cells were collected and lysed with appropriate buffer. After centrifugation, cell free extracts were used to measure the change in fluorescence by luminometer. […] Compound D10 increased in vivo proteolysis of FITC- insulin by about 32 fold with HeLa cells compared to control group (Fig. 3A). […] These findings are consistent with the data obtained by in vitro assay, showing enhanced degradation of insulin by D10 and D3 (Fig. 3A). […] This figure further verifies the significant increase in fluorescence observed in the presence of compound D10, which is consistent with our in vitro assay (Fig. 3B).
# Cells were cultured at 37°C under a humidified atmosphere of 5% CO2 in medium supplemented with 10% fetal bovine serum. Then, FITC-insulin was added to cell medium and incubated for 2 h at 37°C. Next, compounds were loaded at different time intervals separately. Cells were washed with Hank's balanced salt solution (HBSS), then disrupted with 1× passive lysis buffer. Fluorescence was measured with a luminescence multi-label plate leader, and changes in fluorescence was imaged by fluorescence microscope at Burc Laboratory (Istanbul, Turkey).
# IDE [3] = target: T1, IDE (Homo sapiens, UniProt P14735); assay: FAβB (amyloid-β) degradation assay; assay type: biochemical
# T1 construct: made in house; host or cells: E. coli BL21
# T1 sequence (P14735 1-1019): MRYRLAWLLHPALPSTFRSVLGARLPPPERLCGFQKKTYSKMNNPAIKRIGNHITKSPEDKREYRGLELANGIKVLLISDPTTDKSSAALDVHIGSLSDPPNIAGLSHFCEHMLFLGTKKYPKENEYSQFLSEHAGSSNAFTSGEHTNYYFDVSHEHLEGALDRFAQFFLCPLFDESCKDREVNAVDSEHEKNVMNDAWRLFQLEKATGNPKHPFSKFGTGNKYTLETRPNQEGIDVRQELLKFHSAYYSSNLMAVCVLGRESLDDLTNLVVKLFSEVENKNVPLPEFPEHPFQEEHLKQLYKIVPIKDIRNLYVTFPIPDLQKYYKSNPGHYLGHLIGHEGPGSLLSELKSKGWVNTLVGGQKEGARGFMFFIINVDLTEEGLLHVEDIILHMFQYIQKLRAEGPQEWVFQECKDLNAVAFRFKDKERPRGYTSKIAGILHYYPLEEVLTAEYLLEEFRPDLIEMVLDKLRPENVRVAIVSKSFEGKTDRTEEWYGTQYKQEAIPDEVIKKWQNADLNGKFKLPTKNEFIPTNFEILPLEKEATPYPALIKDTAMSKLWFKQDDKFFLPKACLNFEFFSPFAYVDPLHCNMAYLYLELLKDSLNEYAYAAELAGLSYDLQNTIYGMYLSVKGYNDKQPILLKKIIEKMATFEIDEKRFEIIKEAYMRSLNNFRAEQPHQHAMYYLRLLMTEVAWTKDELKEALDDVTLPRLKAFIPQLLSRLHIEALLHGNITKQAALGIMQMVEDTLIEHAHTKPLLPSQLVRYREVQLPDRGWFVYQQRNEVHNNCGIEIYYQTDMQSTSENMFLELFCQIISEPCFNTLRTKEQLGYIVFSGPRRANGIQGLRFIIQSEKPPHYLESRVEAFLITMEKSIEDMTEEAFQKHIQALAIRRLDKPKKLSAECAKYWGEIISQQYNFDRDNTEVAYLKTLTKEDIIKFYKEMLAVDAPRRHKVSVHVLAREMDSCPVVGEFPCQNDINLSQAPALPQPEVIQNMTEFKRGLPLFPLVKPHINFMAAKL
# Description: The 10 compounds given in Table 1 were subjected to further characterization and their effect was measured on the proteolytic activity of IDE using different substrates. Initially, activity assays were carried out at fixed 20 µM concentrations for all molecules to identify the effect of those compounds on IDE activity. IDE activity was quantified by monitoring the change in fluorescence for the proteolysis of fluorogenic-substrate V, FITC- insulin-bound antibody, and FAβB by recombinant human IDE purified from E.coli BL21 [6], [18], [19]. […] Also, D6 increased the amyloid-β degradation by 20% (Fig. S1C). Further, D10 enhanced IDE-mediated FITC-insulin-mAb and substrate V degradation by 290% and 65%, respectively (Fig. S1A, B). Next, an EC50 value of each molecule that enhanced IDE activity was determined with a dose response assay, where specific activity of IDE was measured with different concentrations of the lead compounds and then the plot was fit to Sigmoidal Hill-4 parameter equation. […] EC50 value for D3 on insulin degradation was approximately measured as 20 µM (Fig. S2C), whereas EC50 value for D6 on amyloid-β degradation was 2 µM (Fig. S2D). […] Among all these four compounds, D10 seems to be the potent activator of IDE, when proteolysis of insulin is considered.
# This assay was performed as follows: 10 µl of 50 nM of FAβB was dissolved in a buffer which consisted of 50 mM HEPES, 100 mM NaCl, % 0,05 (v/v) bovine serum albumin, at a pH of 7.4. The reaction was initiated in a total volume of 100 µl with 20 µM drugs by adding 20 µl of 0.02 mg/ml of IDE for 2.5 h at 37°C. The reaction was stopped by adding 2 µl of 100 mM of protease inhibitor (1, 10-phenanthroline). Uncleaved FAβB was precipitated with Neutravidin- coated agarose beads by gentle rocking for 30 min. and centrifugation for 10 min at 14000 g. The supernatant was transferred to the black 96 well plates and increase in fluorescence (488 excitation, 525 emission) was measured with a multi-label plate reader.
# The effect of the lead compounds on the initial rate of proteolysis of IDE was determined by measurement in fluorescence with time both in the presence and absence of the lead compounds. The kinetic data for IDE-mediated insulin, substrate V and amyloid-β degradation were plotted and fitted using SigmaPlot software (Sigmoidal, Hill, 4 parameter). For the initial rate calculations, kinetic data were fitted using SigmaPlot software (Hyperbola; Single Rectangular I, 3 Parameter).
# IDE [4] = settings: bradykinin as IDE substrate; cited from earlier work
Compound,cytotoxicity at EC50 value (HeLa cells [1]; 2 µM),"cytotoxicity at high concentrations (HeLa cells [1]; 1 to 100 µM, 24 h)",effect on insulin catabolism in HeLa cells (HeLa cells [2]; HeLa cells pre-loaded with FITC-insulin),permeability through cell membrane (HeLa cells [2]; inferred from HeLa cell assay),increase of IDE-mediated amyloid-β degradation (IDE [3]; 20 µM compound) [%],"effect of ATP on amyloid-β degradation in presence of compound (IDE [3]; ATP, data not shown)","pEC50 (IDE [3]; dose response, Sigmoidal Hill 4 parameter fit)",acceleration of initial rate of amyloid-β proteolysis (IDE [3]; presence vs absence of compound) [factor],Km (IDE [4]) [mM]
O=[N+]([O-])c1cc(Cn2c(-c3ccc(Cl)c([N+](=O)[O-])c3)nc3ccccc32)ccc1Cl [Compound D6],not toxic,showed toxicity at higher concentrations,no effect on insulin catabolism; also recorded: does not change insulin degradation,permeable through cell membrane,20,no effect,5.70,1.3,
"bradykinin (RPPGFSPFR; Bradykinin; UniProt P01042 381-389, looked up)",,,,,,,,,4.2
